The data set relates to wild-type N2 C. elegans.

Experimental: The synchronized L1-stage nematodes were diluted to 20 to 30 nematodes/10 μL. The L1-stage C. elegans was collected in the S broth and cultured in a 96-well plate (365 μL/well). 165 μL of medium, 20 μL of different concentrations of CTX treatment groups, 10 μL of L1-stage nematodes, and 5 μL of OP50 were added in sequence into the 96-well plate, and the nematodes were cultured in a biological incubator at 20° C. for 72 h, where each concentration was set with 10 groups in parallel.
The CTX was set up in three exposure groups from low to high, with concentrations being 500 μg/mL, 1 mg/mL, and 2 mg/mL. At the same time, a blank control was set up.
The nematodes treated with different concentrations of drugs were transferred to NGM, and only one nematode was placed on each medium. The one nematode was picked to a new medium every day with a worm picker. After nematodes produced by this one nematode on the old medium grew to adults, the number of nematodes on the NGM plates with different concentrations of CTX was counted until this one nematode no longer lay eggs. A sum of the number of nematodes exchanged every day was the number of eggs laid and hatched in a whole reproductive cycle of the nematode, and the reproductive capacity of the nematode was determined based on this.
L1-stage C. elegans was obtained according to the protocol in Example 1, and was treated with the CTX at a concentration of 1 mg/mL according to Example 1. Effect of treatment time on the reproductive capacity of the C. elegans was investigated.
Nematodes in L1 to L4 stages were used to construct models and the rest of the steps were conducted according to the method in Example 1.
At 20° C. a blank control group and a CTX treatment group were given pure OP50 bacterial solution and 1 mg/mL CTX/OP50 bacterial solution, respectively. Food were supplemented every 24 h, and whether the nematodes survived normally was observed. After treated in S broth for 72 h, the nematodes in the blank group and the CTX treatment group were transferred to NGM with food OP50, and one nematode was placed on each medium. The one nematode was picked to a new medium every day with a worm picker After nematodes produced by this one nematode on the old medium grew to adults, the number of nematodes on NGM plates of the blank group and the CTX treatment group was counted until this one nematode no longer lay eggs.

`O=P1(N(CCCl)CCCl)NCCCO1` (centres unmarked) [CTX, cyclophosphamide]: the “reproductive capacity of C. elegans as a function of CTX concentration” value (500 μg/mL to 2 mg/mL, L1-stage, S broth, 72 h) is recorded as “decreased with the increase of concentration”. Where the note is “CTX 1 mg/mL, 48 h to 96 h treatment”, the “total number of reproduced C. elegans compared with the control” value is given as “significantly reduced”. Besides, for the setting “CTX 1 mg/mL, L1-stage nematodes, S broth, 20° C., 72 h”, the “reduction of reproductive capacity (total number of nematodes reproduced) compared with blank control group” value was 50%. For the setting “CTX 1 mg/mL, treated for 72 h”, the “total reproduced C. elegans” value is “reduced to the minimum”. Also, the fecundity of nematodes result (drug treatment at different larval stages L1 to L4) is recorded as “significantly reduce the fecundity”.

The values above are taken from patent US20250031679A1, “SCREENING METHOD OF PROBIOTIC AND ACTIVE SUBSTANCE FOR PROMOTING RE[…] AND USE” (Xuzhou Medical University, priority 2023, published 2025).
